Earlier results in patent EP2965746B1 (Santa Farma Ilaç Sanayi A.S., priority 2014, dated 2016).
Converted amounts (≈) assume the structure as drawn.

Tests used:
[1] = in vivo
[2] = in vivo; remark: listed apart in the source
[3] = in water

Structure (SMILES)	time to reach maximum plasma concentration (Tmax) [1] [h]	absolute bioavailability [2]	solubility [3] [µg/mL]
CC(C)Cc1ccc(C(C)C(=O)O)cc1 (racemic) [Ibuprofen, (±)-(R,S)-2-(4-isobutylphenyl)-propionic acid]	1.4 ± 1.1	about 100%	0.078 (≈ 0.378 µM)
CC(C)Cc1ccc(C(C)C(=O)O)cc1.O.O.[Na] (stereo not shown) [Ibuprofen sodium dihydrate, ibuprofen sodium dihydrate]	0.6 ± 0.3		
